# Source: publication PMC4246079, “Structure and Mechanism of the Bifunctional CinA Enzyme from Thermus thermophilus” (The Journal of Biological Chemistry, 2014)
# How the values were obtained:
# TtCinA [1] = target: T1, TtCinA (Thermus thermophilus, UniProt Q5SHB0); assay: reverse-phase HPLC of conversion to NCN; type: biochemical; conditions: NMN deamidase; 1 mM NMN, 100 μg enzyme per ml, 25 mM Tris-HCl pH 8.0, 100 mM NaCl, 37 °C, 15 min
# T1 construct: gene TTHA1820; full-length, N-terminal His6 tag with thrombin site (pET28a, thrombin-treated), expressed in E. coli T7 Express; asymmetric homodimer (~72 kDa by SEC, 86 kDa predicted dimer)
# TtCinA [2] = target: T1, TtCinA; assay: X-ray crystal structure ([…] Å; crystal soaked with NMN); type: binding; conditions: NMN deamidase site; built as product NCN by presumption, density could not distinguish NMN from NCN; 5 mM MgCl2, 25 mM NMN soak
# TtCinA [3] = target: T1, TtCinA; assay: X-ray crystal structure ([…] Å; crystal soak); type: binding; conditions: ADPR site of COG1058 domain, open site only, weaker density; 5 mM MgCl2, 25 mM ligand (AMP/ribose 5-phosphate), Mg2+ bound
# TtCinA [4] = target: T1, TtCinA; assay: X-ray crystal structure ([…] Å; crystal soak); type: binding; conditions: ADPR site of COG1058 domain, both sites; 5 mM MgCl2, 25 mM ligand, Mg2+ bound; no hydrolysis seen
# TtCinA [5] = target: T1, TtCinA; assay: X-ray crystal structure ([…] Å; crystal soak); turnover to AMP also seen by HPLC; type: binding; conditions: ADPR site of COG1058 domain, both open and closed sites; 5 mM MgCl2, 25 mM ligand, Mg2+ bound; HPLC assay with 1 mM ADP-ribose, 4 mM CoCl2, 100 mM KCl, pH 8.0, 50 °C
# T1 sequence (Q5SHB0 entry or part of it): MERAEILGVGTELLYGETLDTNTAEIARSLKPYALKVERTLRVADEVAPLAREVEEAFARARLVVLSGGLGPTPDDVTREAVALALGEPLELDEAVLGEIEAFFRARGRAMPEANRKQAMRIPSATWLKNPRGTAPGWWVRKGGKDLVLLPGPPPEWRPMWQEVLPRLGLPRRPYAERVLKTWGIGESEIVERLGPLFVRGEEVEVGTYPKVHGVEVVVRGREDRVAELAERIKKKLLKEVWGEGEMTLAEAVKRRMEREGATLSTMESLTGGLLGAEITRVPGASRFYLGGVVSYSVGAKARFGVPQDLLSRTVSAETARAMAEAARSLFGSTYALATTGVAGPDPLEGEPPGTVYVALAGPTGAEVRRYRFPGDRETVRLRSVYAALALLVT
compound,measurement,setting,value
"NC(=O)c1ccc[n+]([C@@H]2O[C@H](COP(=O)([O-])O)[C@@H](O)[C@H]2O)c1 [NMN, nicotinamide mononucleotide]",reverse-phase HPLC of conversion to NCN,TtCinA [1],NMN showed rapid conversion to NCN product in the presence of TtCinA
"O=C([O-])c1ccc[n+]([C@@H]2O[C@H](COP(=O)(O)O)[C@@H](O)[C@H]2O)c1 [NCN, nicotinate mononucleotide]",X-ray crystal structure (2.46 Å; crystal soaked with NMN),TtCinA [2],"it was not possible to distinguish NMN from the product, NCN"
Nc1ncnc2c1ncn2[C@@H]1O[C@H](COP(=O)(O)O)[C@@H](O)[C@H]1O [AMP],X-ray crystal structure (1.98 Å; crystal soak),TtCinA [3],it was possible to model in an AMP molecule in one of the two active sites
Nc1ncnc2c1ncn2[C@@H]1O[C@H](COP(=O)(O)OP(=O)(O)OP(=O)(O)O)[C@@H](O)[C@H]1O [ATP],X-ray crystal structure (2.21 Å; crystal soak),TtCinA [4],ATP binds in a very similar conformation to ADP-ribose
Nc1ncnc2c1ncn2[C@@H]1O[C@H](COP(=O)(O)OP(=O)(O)OC[C@H]2OC(O)[C@H](O)[C@@H]2O)[C@@H](O)[C@H]1O (some centres unmarked) [ADP-ribose],X-ray crystal structure (1.99 Å; crystal soak); turnover to AMP also seen by HPL,TtCinA [5],ADP-ribose and ATP data sets produced clear difference density in both catalytic sites
